# Laboratory results published in the RepoRT retention time repository (doi:10.1021/acs.analchem.7b00925).
# Test: HILIC, Merck SeQuant ZIC-HILIC, 100 × 2.1 mm, 3.5 µm, 25 °C, 0.3 mL/min, estimated dead time 0.73 min; A: water + 0.1% formic acid, pH 3; B: acetonitrile + 0.1% formic acid, pH 3; gradient (min/%B) 0/95 1.5/95 13.5/40 15.5/40 29.7/25 33.5/25 34.5/95 41.5/95
# Conditions: stereoisomer not certain
row,SMILES,LC retention time
1,Nc1nc2c(ncn2C2OC(COP(=O)(O)O)C(O)C2O)c(=O)[nH]1 (stereo unspecified) [Guanosine mono-phosphate],8.15 min
2,O=S(=O)(O)CCN1CCN(CCO)CC1 [HEPES],10.7 min
3,OCCOCCOCCOCCOCCOCCO [Hexaethylene glycol],1.69 min
4,O=C(O)CNC(=O)c1ccccc1 [Hippuric acid],1.36 min
5,NCCc1cnc[nH]1 [Histamine],14.4 min
6,NC(CCS)C(=O)O (stereo unspecified) [Homocysteine],7.41 min
7,NC(CCO)C(=O)O (stereo unspecified) [Homoserine],8.29 min
8,C[N+]1(C)CCCCC1C(=O)[O-] (stereo unspecified) [Homostachydrine],6.93 min
9,NCCc1cc(O)c(O)cc1O [Hydroxydopamine],9.19 min
10,NCCS(=O)O [Hypotaurine],7.87 min
11,O=C(O)c1c[nH]c2ccccc12 [Indole-3-carboxylic acid],1.46 min
12,O=C(O)c1ccncc1 [Isonicotinic acid],2.25 min
13,Cn1cncc1CC(NC(=O)CCN)C(=O)O [L-Anserine],12.6 min
14,NC(N)=NCCC[C@H](N)C(=O)O [L-Arginine],12.2 min
15,CC[C@H](C)[C@H](N)C(=O)O [L-Isoleucine],6.76 min
16,CCNC(=O)CC[C@H](N)C(=O)O [L-Theanine],7.58 min
17,CS(=O)(=O)CCC(N)C(=O)O [L-methionine sulfone],7.89 min
18,NCCCCC(N)C(=O)O (stereo unspecified) [Lysine],12.5 min
19,O=S(=O)(O)CCN1CCOCC1 [MES],6.42 min
20,OCC(O)C(O)C(O)C(O)CO (stereo unspecified) [Mannitol],6.57 min
21,CNCC(O)c1ccc(O)c(OC)c1 (stereo unspecified) [Metanephrine],7.06 min
22,CN(C)C(=N)N=C(N)N [Metformin],8.84 min
23,CS(=O)CCC(N)C(=O)O (stereo unspecified) [Methionine sulfoxide],8.59 min
24,COC(=O)c1nccnc1N [Methyl 3-aminopyrazine-2-carboxylic acid],1.05 min
25,COC(=O)c1cccnc1 [Methyl nicotinic acid],1.16 min
26,Cc1ccccc1C(=O)NCC(=O)O [Methylhippurate],1.05 min

row,SMILES,LC retention time
1,COC(=O)c1ccccn1 [Methylpicolinate],1.06 min
2,CSCC1OC(n2cnc3c(N)ncnc32)C(O)C1O (stereo unspecified) [Methylthioadenosine],4.81 min
3,CC(=O)NCCCC[C@H]([NH3+])C(=O)[O-] [N6-Acetyl-L-lysine],7.59 min
4,"CC(=O)NC(Cc1cnc[nH]1)C(=O)O (stereo unspecified) [N,N-Acetylhistidine]",8.16 min
5,CC(=O)N[C@H]1C(O)O[C@H](CO)[C@@H](O)[C@@H]1O (stereo partly drawn) [N-Acetyl-D-glucosamine],6.24 min
6,CC(=O)N[C@@H](CC(=O)O)C(=O)O [N-Acetyl-L-aspartic acid],4.31 min
7,CC(=O)NC(CCCN)C(=O)O (stereo unspecified) [N-Acetyl-ornithine],8.65 min
8,CC(=O)NC(CCC[NH+]=C(N)N)C(=O)[O-] (stereo unspecified) [N-Acetylarginine],8.35 min
9,CC(=O)NC1C(O)CC(O)(C(=O)O)OC1C(O)C(O)CO (stereo unspecified) [N-Acetylneuraminic acid],7.06 min
10,CC(=O)NC(CCCC[NH3+])C(=O)[O-] (stereo not drawn) [N-Alpha-acetyllysine],8.42 min
11,O=C(O)CNC(=O)C=Cc1ccccc1 [N-Cinnamoylglycine],1.34 min
12,CN1CCC[C@H]1C(=O)O [N-Methyl-L-proline],7.26 min
13,CNC(=O)c1cccnc1 [N-Methylnicotinamide],2.26 min
14,CC(=O)NCCc1c[nH]c2ccc(O)cc12 [N-acetyl-5-hydroxytryptamine],2.03 min
15,CC(=O)NC(CCC(=O)O)C(=O)O (stereo unspecified) [N-acetylglutamate],3.71 min
16,CC(=O)NC(Cc1ccccc1)C(=O)O (stereo unspecified) [N-acetylphenylalanine],1.58 min
17,CC(=O)NCCCCN [N-acetylputrescine],8.56 min
18,CSCCC(NC=O)C(=O)O (stereo unspecified) [N-formylmethionine],1.85 min
19,CN[C@H](CC(=O)O)C(=O)O [N-methyl-D-aspartic acid],7.39 min
20,CNCCc1cnc[nH]1 [Na-methylhistamine],15.2 min
21,NC(Cc1ccc(O)c([N+](=O)[O-])c1)C(=O)O (stereo unspecified) [Nitrotyrosine],6.1 min
22,NCC(O)c1ccc(O)c(O)c1 (stereo unspecified) [Noradrenaline],9.31 min
23,CCCC(C(=O)[O-])[N+](C)(C)C (stereo unspecified) [Norvaline betaine],6.15 min
24,NCC(O)c1ccc(O)cc1 (stereo unspecified) [Octopamine],7.57 min
25,CCC(NC(=O)CCC(N)C(=O)O)C(=O)NCC(=O)O (stereo unspecified) [Ophthalmic acid],7.85 min
26,NCCCC(N)C(=O)O (stereo unspecified) [Ornithine],12.5 min

row,SMILES,LC retention time
1,O=S(=O)(O)CCN1CCN(CCS(=O)(=O)O)CC1 [PIPES],9.12 min
2,CC(C)(CO)C(O)C(=O)NCCC(=O)O (stereo unspecified) [Pantothenic acid],2.31 min
3,CC(C)CC(NC(=O)C(C)NC(=O)C(N)Cc1ccccc1)C(=O)O (stereo not drawn) [Phe-Ala-Leu],5.8 min
4,CC(NC(=O)C(N)Cc1ccccc1)C(=O)NC(CO)C(=O)O (stereo not drawn) [Phe-Ala-Ser],7.49 min
5,NC(=O)CCC(NC(=O)Cc1ccccc1)C(=O)O (stereo unspecified) [Phenylacetylglutamine],2.63 min
6,C[N+](C)(C)[C@@H](Cc1ccccc1)C(=O)[O-] [Phenylalanine betaine],5.5 min
7,NC(C(=O)O)c1ccccc1 (stereo unspecified) [Phenylglycine],6.41 min
8,CN(CC(=O)O)C(N)=NP(=O)(O)O [Phosphocreatine],7.7 min
9,C=C(OP(=O)(O)O)C(=O)[O-] [Phosphoenol pyruvate],6.22 min
10,O=C(O)c1ccccc1C(=O)O [Phthalic acid],2.12 min
11,O=C(C=CC=Cc1ccc2c(c1)OCO2)N1CCCCC1 [Piperine],0.94 min
12,O=C(NCC(=O)N1CCCC1C(=O)O)C1CCCN1 (stereo unspecified) [Proline-glycine-proline],7.66 min
13,O=C(O)CNC(=O)C1CCCN1 (stereo unspecified) [Proline-glycine],7.71 min
14,O=C(O)C1CC(O)CN1C(=O)C1CCCN1 (stereo unspecified) [Proline-hydroxyproline],8.4 min
15,CCC(=O)OC(CC(=O)[O-])C[N+](C)(C)C (stereo unspecified) [Propionylcarnitine],4.5 min
16,CN1CCCN=C1C=Cc1cccs1 [Pyrantel],2.3 min
17,Cc1ncc(CO)c(C=O)c1O [Pyridoxal],4.94 min
18,Cc1ncc(CO)c(CN)c1O [Pyridoxamine],13.1 min
19,Cc1ncc(CO)c(CO)c1O [Pyridoxine],7.08 min
20,O=C(O)CNC(=O)C1CCC(=O)N1 (stereo unspecified) [Pyroglutamylglycine],4.32 min
21,C1CCNC1 [Pyrrolidine],7.71 min
22,O=C(O)c1ccc2ccccc2n1 [Quinaldic acid],1.24 min
23,OCC1OC(O)C(O)C1O (stereo unspecified) [Ribose],5 min
24,Nc1ncnc2c1ncn2C1OC(CSCCC([NH3+])C(=O)[O-])C(O)C1O (stereo unspecified) [S-adenosylhomocysteine],10.1 min
